# Measurements reported in US20100285959A1, “HERBICIDAL MIXTURES” (priority 2006, published 2010).
# How the values were obtained:
# ducksalad (HETLI) = experiment: Test 32 greenhouse, simulated flooded rice culture; assay type: in vivo, Heteranthera limosa; design: scale not given here; details: postemergence to flood, 21 DAA
# Protocol: A greenhouse trial was conducted to evaluate the effects of Compound 1 and isoxadifen-ethyl at different ratios in simulated flooded rice culture. Plastic pots (11-cm diameter) were partially filled with non-sterilized Tama silt loam soil containing a 15:57:28 ratio of sand, silt and clay and 2.9% organic matter. Seeds of Heteranthera limosa (ducksalad; HETLI), Cyperus difformis (smallflower umbrella sedge; CYPDI), one stand of Echinochloa crus-galli (barnyardgrass; ECHCG), and one stand of four rice seedlings (Oryza sativa cv. ‘M202’; ORYSA) were planted into a single 11-cm diameter pot for each rate and mixture of rates. To obtain this planting, C. difformis and H. limosa seeds were planted separately on the surface soil layer at particular locations within each pot. Water levels were brought to a puddled condition above the soil surface directly after planting. E. crus-galli and rice seeds were planted in cavity trays in the silt loam soil and transplanted at the 1.5 and 2.0 leaf stage, respectively. E. crus-galli and rice plants were transplanted to about 2-cm depth by transferring plugs from the cavity trays. Plantings were sequential so that these plant species all reached the 2.0- to 2.5-leaf stage in the 11-cm diameter pot at time of treatment. Plantings were established and maintained in a greenhouse with day and night temperatures of about 29.5 and 26.7° C. respectively; supplemental balanced lighting was provided to maintain a 16-hour photoperiod. Pots were fertilized periodically with a 200 ppm solution of commercial Scotts Peters® Professional® General Purpose 20-20-20 Water Soluble Fertilizer, amended to 10 ppm with a commercial iron-chelate micronutrient fertilizer. The solution was supplied at time of watering via a liquid fertilizer injector.
# At treatment time, test pots were flooded to 3 cm above the soil surface and maintained at that water depth for the duration of the test. Chemical treatments were formulated in acetone and applied directly to the paddy water (i.e., postemergence to flood). Make-up volumes of acetone were added to ensure that all pots were treated with a consistent volume. Test pots were maintained in the greenhouse. A randomized complete block design was employed. Five replicates of each treatment, alone and in mixture, were used. Each species was visually evaluated for treatment effects by comparing those treated to untreated controls and rated for plant response after 21 days.
# [1] = tested on: Pennsylvania smartweed (POLPY); experiment: Test 26 field trial, postemergence; assay type: in vivo, Polygonum pensylvanicum
# Description: (§1) Corn seeds (hybrid ‘Pioneer 31G96’) were planted in mid spring season, 3.8 cm deep in a silt loam soil having 2% organic matter and a pH of 6.6. Plots were 6.1 m long by 3.0 m wide with rows spaced 76 cm apart. Seeds were spaced 15 cm apart within the rows. The field was managed using conventional tillage practices. […] All treatments also included a surfactant. […] Some of the weed species could not be evaluated at every timing. […] Results are the means of the three replicates.
# [2] = tested on: common lambsquarters (CHEAL); experiment: Test 25 field trial, postemergence, growth as percent of control; assay type: in vivo, Chenopodium album
# Description: (§2) Corn seeds (hybrid ‘Pioneer 31G96 RR’) were planted in mid spring season, 3.8 cm deep in a clay loam soil having 2% organic matter and a pH of 6.6. Plots were 6.1 m long by 3.0 m wide with rows spaced 76 cm apart. Seeds were spaced 15 cm apart within the rows. The field was managed using conventional tillage practices. […] Giant ragweed and Pennsylvania smartweed could only be evaluated 14 days after application. […] Results are the means of the three replicates. This growth inhibition data was converted to results in the form of “plant growth as a percent of control plant growth” using the calculation “100 minus growth inhibition”.
# (§3) When this form of Colby's Equation is used, if the observed effects on weeds are less than the expected values, the mixture is synergistic.
# jimsonweed (DATST) = experiment: Test 26 field trial, postemergence; assay type: in vivo, Datura stramonium; details: 28 DAA
# Description: as §1
# redroot pigweed (AMARE) = experiment: Test 25 field trial, postemergence, growth as percent of control; assay type: in vivo, Amaranthus retroflexus
# Description: as §2, §3
# field pennycress (THLAR) = experiment: Test 4 field trial, postemergence; assay type: in vivo, Thlaspi arvense; design: scale not given here
# Protocol: A field trial was conducted to evaluate the effects of mixtures of Compound 2 with commercial herbicides on spring wheat (TRZAS, Triticum aestivum L.) and several weed species. Wheat seeds (cv. ‘AC Intrepid’) were planted in late spring season, 3.8 cm deep in a loam soil having 2.7% organic matter and a pH of 7. Plots were 6 m long by 2.5 m wide. The field was managed using no-till practices. The plots were arranged in a randomized complete block design with each treatment being replicated four times. Treatments were applied postemergence 25 days after planting using a backpack sprayer delivering a spray volume of 55 L/ha using a pressure of 276 kPa. […] Compound 2 and clodinafop treatments, alone and in combination, also included a surfactant. Weed species present in the experimental plots in sufficient quantity to be evaluated included wild oat (AVEFA, Avena fatua L.), common lambsquarters (CHEAL, Chenopodium album L.), kochia (KCHSC, Kochia scoparia (L.) Schrad.), wild buckwheat (POLCO, Polygonum convolvulus L.), Russian thistle (SASKR, Salsola kali L. ssp. ruthenica (Iljin) Soo), and field pennycress (THLAR, Thlaspi arvense L.). […] Common lambsquarters was evaluated only at 14 days after application. […] Results are the means of the four replicates.
# common ragweed (AMBEL) = experiment: Test 26 field trial, postemergence; assay type: in vivo, Ambrosia artemisiifolia; design: scale not given here
# Description: as §1
structure (smiles),measurement,setting,value
"Nc1nc(C2CC2)nc(C(=O)O)c1Cl [Compound 1, 6-amino-5-chloro-2-cyclopropyl-4-pyrimidinecarboxylic acid]",HETLI Obs,ducksalad (HETLI); Cpd 1 31.25 g a.i./ha,38
same,HETLI Obs,ducksalad (HETLI); Cpd 1 62.5 g a.i./ha,76
same,HETLI Obs,ducksalad (HETLI); Cpd 1 125 g a.i./ha,95
"COC(=O)c1nc(C2CC2)nc(N)c1Cl [Compound 2, methyl 6-amino-5-chloro-2-cyclopropyl-4-pyrimidinecarboxylate]",POLPY Obs,"[1]; 14 DAA, 60 g a.i./ha",100
same,POLPY Obs,"[1]; 28 DAA, 30 g a.i./ha",20
same,POLPY Obs,"[1]; 28 DAA, 45 g a.i./ha",62
same,POLPY Obs,"[1]; 28 DAA, 60 g a.i./ha",75
same,CHEAL Obs (percent of control),"[2]; Cpd 2 15 g a.i./ha, 14 DAA",15%
same,CHEAL Obs (percent of control),"[2]; Cpd 2 15 g a.i./ha, 28 DAA",2%
same,CHEAL Obs (percent of control),"[2]; Cpd 2 15 g a.i./ha, 56 DAA",0%
same,CHEAL Obs (percent of control),"[2]; Cpd 2 30 g a.i./ha, 14 DAA",20%
same,CHEAL Obs (percent of control),"[2]; Cpd 2 30 g a.i./ha, 28 DAA",1%
same,CHEAL Obs (percent of control),"[2]; Cpd 2 30 g a.i./ha, 56 DAA",0%
same,CHEAL Obs (percent of control),"[2]; Cpd 2 45 g a.i./ha, 14 DAA",7%
same,CHEAL Obs (percent of control),"[2]; Cpd 2 45 g a.i./ha, 28 DAA",0%
same,CHEAL Obs (percent of control),"[2]; Cpd 2 45 g a.i./ha, 56 DAA",0%
same,DATST Obs,jimsonweed (DATST); 30 g a.i./ha,100
same,DATST Obs,jimsonweed (DATST); 45 g a.i./ha,100
same,DATST Obs,jimsonweed (DATST); 60 g a.i./ha,100
same,AMARE Obs (percent of control),"redroot pigweed (AMARE); Cpd 2 15 g a.i./ha, 14 DAA",47%
same,AMARE Obs (percent of control),"redroot pigweed (AMARE); Cpd 2 15 g a.i./ha, 28 DAA",38%
same,AMARE Obs (percent of control),"redroot pigweed (AMARE); Cpd 2 15 g a.i./ha, 56 DAA",0%
same,AMARE Obs (percent of control),"redroot pigweed (AMARE); Cpd 2 30 g a.i./ha, 14 DAA",35%
same,AMARE Obs (percent of control),"redroot pigweed (AMARE); Cpd 2 30 g a.i./ha, 28 DAA",22%
same,AMARE Obs (percent of control),"redroot pigweed (AMARE); Cpd 2 30 g a.i./ha, 56 DAA",0%
same,AMARE Obs (percent of control),"redroot pigweed (AMARE); Cpd 2 45 g a.i./ha, 14 DAA",28%
same,AMARE Obs (percent of control),"redroot pigweed (AMARE); Cpd 2 45 g a.i./ha, 28 DAA",20%
same,AMARE Obs (percent of control),"redroot pigweed (AMARE); Cpd 2 45 g a.i./ha, 56 DAA",28%
same,THLAR Obs,"field pennycress (THLAR); 14 DAA, Cpd 2 30 g a.i./ha alone or with fenoxaprop 90",0
same,THLAR Obs,"field pennycress (THLAR); 14 DAA, Cpd 2 60 g a.i./ha alone or with clodinafop 56 or fenoxaprop 90",0
same,THLAR Obs,"field pennycress (THLAR); 35 DAA, Cpd 2 30 g a.i./ha alone or with clodinafop 56 or fenoxaprop 90",0
same,THLAR Obs,"field pennycress (THLAR); 35 DAA, Cpd 2 60 g a.i./ha alone or with fenoxaprop 90",8
same,AMBEL Obs,"common ragweed (AMBEL); 14 DAA, 30 g a.i./ha",94
same,AMBEL Obs,"common ragweed (AMBEL); 14 DAA, 45 g a.i./ha",67
same,AMBEL Obs,"common ragweed (AMBEL); 14 DAA, 60 g a.i./ha",98
same,AMBEL Obs,"common ragweed (AMBEL); 28 DAA, 30 g a.i./ha",88
same,AMBEL Obs,"common ragweed (AMBEL); 28 DAA, 45 g a.i./ha",95
same,AMBEL Obs,"common ragweed (AMBEL); 28 DAA, 60 g a.i./ha",98
same,AMBEL Obs,"common ragweed (AMBEL); 56 DAA, 30 g a.i./ha",73
same,AMBEL Obs,"common ragweed (AMBEL); 56 DAA, 45 g a.i./ha",95
same,AMBEL Obs,"common ragweed (AMBEL); 56 DAA, 60 g a.i./ha",95
